Laboratory results taken from PubChem BioAssay AID1259407 (Chemical Carcinogenesis Research Information System (CCRIS), 2018).
Calls of active or inactive are those of the source. The rule behind the calls is not given here.

Test system: CCRIS mutagenicity, Ames/micronucleus/aberration tests
Assay: CCRIS mutagenicity studies

For `C1CCC2CCCCC2C1` (centres undefined), the mutagenic call (End Point: IN VIVO MICRONUCLEUS, Test System: PERIPHERAL BLOOD LYMPHOCYTES, Species: MOUSE, Strain/Sex: B6C3F1/FEMALE, Route: INHALATION) was “inactive; negative”, the mutagenic call (End Point: IN VIVO MICRONUCLEUS, Test System: PERIPHERAL BLOOD LYMPHOCYTES, Species: MOUSE, Strain/Sex: B6C3F1/MALE, Route: INHALATION) was “active; positive” and the mutagenic call (Test System: AMES SALMONELLA TYPHIMURIUM, Strain/Indicator: TA97, Metabolic Activation: HAMSTER, LIVER, S-9 (10%), AROCLOR 1254, Method: PREINCUBATION) was “inactive; negative”. The mutagenic call (Test System: AMES SALMONELLA TYPHIMURIUM, Strain/Indicator: TA97, Metabolic Activation: HAMSTER, LIVER, S-9 (30%), AROCLOR 1254, Method: PREINCUBATION) was “inactive; negative”, the mutagenic call (Test System: AMES SALMONELLA TYPHIMURIUM, Strain/Indicator: TA97, Metabolic Activation: NONE, Method: PREINCUBATION) was “inactive; negative” and the mutagenic call (Test System: AMES SALMONELLA TYPHIMURIUM, Strain/Indicator: TA97, Metabolic Activation: RAT, LIVER, S-9 (10%), AROCLOR 1254, Method: PREINCUBATION) was “inactive; negative”. The mutagenic call (Test System: AMES SALMONELLA TYPHIMURIUM, Strain/Indicator: TA97, Metabolic Activation: RAT, LIVER, S-9 (30%), AROCLOR 1254, Method: PREINCUBATION) was “inactive; negative”, the mutagenic call (Test System: AMES SALMONELLA TYPHIMURIUM, Strain/Indicator: TA98, Metabolic Activation: HAMSTER, LIVER, S-9 (10%), AROCLOR 1254, Method: PREINCUBATION) was “inactive; negative” and the mutagenic call (Test System: AMES SALMONELLA TYPHIMURIUM, Strain/Indicator: TA98, Metabolic Activation: HAMSTER, LIVER, S-9 (30%), AROCLOR 1254, Method: PREINCUBATION) was “inactive; negative”. For the same compound, the mutagenic call (Test System: AMES SALMONELLA TYPHIMURIUM, Strain/Indicator: TA98, Metabolic Activation: HAMSTER, LIVER, S-9, AROCLOR 1254, Method: STANDARD PLATE) was “inactive; negative”, the mutagenic call (Test System: AMES SALMONELLA TYPHIMURIUM, Strain/Indicator: TA98, Metabolic Activation: NONE, Method: PREINCUBATION) was “inactive; negative” and the mutagenic call (Test System: AMES SALMONELLA TYPHIMURIUM, Strain/Indicator: TA98, Metabolic Activation: NONE, Method: STANDARD PLATE) was “inactive; negative”. The mutagenic call (Test System: AMES SALMONELLA TYPHIMURIUM, Strain/Indicator: TA98, Metabolic Activation: RAT, LIVER, S-9 (10%), AROCLOR 1254, Method: PREINCUBATION) was “inactive; negative”, the mutagenic call (Test System: AMES SALMONELLA TYPHIMURIUM, Strain/Indicator: TA98, Metabolic Activation: RAT, LIVER, S-9 (30%), AROCLOR 1254, Method: PREINCUBATION) was “inactive; negative” and the mutagenic call (Test System: AMES SALMONELLA TYPHIMURIUM, Strain/Indicator: TA98, Metabolic Activation: RAT, LIVER, S-9, AROCLOR 1254, Method: STANDARD PLATE) was “inactive; negative”. The mutagenic call (Test System: AMES SALMONELLA TYPHIMURIUM, Strain/Indicator: TA100, Metabolic Activation: HAMSTER, LIVER, S-9 (10%), AROCLOR 1254, Method: PREINCUBATION) was “inactive; negative”, the mutagenic call (Test System: AMES SALMONELLA TYPHIMURIUM, Strain/Indicator: TA100, Metabolic Activation: HAMSTER, LIVER, S-9 (30%), AROCLOR 1254, Method: PREINCUBATION) was “inactive; negative” and the mutagenic call (Test System: AMES SALMONELLA TYPHIMURIUM, Strain/Indicator: TA100, Metabolic Activation: HAMSTER, LIVER, S-9, AROCLOR 1254, Method: STANDARD PLATE) was “inactive; negative”. For the same compound, the mutagenic call (Test System: AMES SALMONELLA TYPHIMURIUM, Strain/Indicator: TA100, Metabolic Activation: NONE, Method: PREINCUBATION) was “inactive; negative; precipitation occurred at 333 ug/plate”, the mutagenic call (Test System: AMES SALMONELLA TYPHIMURIUM, Strain/Indicator: TA100, Metabolic Activation: NONE, Method: STANDARD PLATE) was “inactive; negative” and the mutagenic call (Test System: AMES SALMONELLA TYPHIMURIUM, Strain/Indicator: TA100, Metabolic Activation: RAT, LIVER, S-9 (10%), AROCLOR 1254, Method: PREINCUBATION) was “inactive; negative”. The mutagenic call (Test System: AMES SALMONELLA TYPHIMURIUM, Strain/Indicator: TA100, Metabolic Activation: RAT, LIVER, S-9 (30%), AROCLOR 1254, Method: PREINCUBATION) was “inactive; negative”, the mutagenic call (Test System: AMES SALMONELLA TYPHIMURIUM, Strain/Indicator: TA100, Metabolic Activation: RAT, LIVER, S-9, AROCLOR 1254, Method: STANDARD PLATE) was “inactive; negative” and the mutagenic call (Test System: AMES SALMONELLA TYPHIMURIUM, Strain/Indicator: TA1535, Metabolic Activation: HAMSTER, LIVER, S-9 (10%), AROCLOR 1254, Method: PREINCUBATION) was “inactive; negative”. The mutagenic call (Test System: AMES SALMONELLA TYPHIMURIUM, Strain/Indicator: TA1535, Metabolic Activation: HAMSTER, LIVER, S-9 (30%), AROCLOR 1254, Method: PREINCUBATION) was “inactive; negative”, the mutagenic call (Test System: AMES SALMONELLA TYPHIMURIUM, Strain/Indicator: TA1535, Metabolic Activation: HAMSTER, LIVER, S-9, AROCLOR 1254, Method: STANDARD PLATE) was “inactive; negative” and the mutagenic call (Test System: AMES SALMONELLA TYPHIMURIUM, Strain/Indicator: TA1535, Metabolic Activation: NONE, Method: PREINCUBATION) was “inactive; negative”. For the same compound, the mutagenic call (Test System: AMES SALMONELLA TYPHIMURIUM, Strain/Indicator: TA1535, Metabolic Activation: NONE, Method: STANDARD PLATE) was “inactive; negative”, the mutagenic call (Test System: AMES SALMONELLA TYPHIMURIUM, Strain/Indicator: TA1535, Metabolic Activation: RAT, LIVER, S-9 (10%), AROCLOR 1254, Method: PREINCUBATION) was “inactive; negative” and the mutagenic call (Test System: AMES SALMONELLA TYPHIMURIUM, Strain/Indicator: TA1535, Metabolic Activation: RAT, LIVER, S-9 (30%), AROCLOR 1254, Method: PREINCUBATION) was “inactive; negative”. The mutagenic call (Test System: AMES SALMONELLA TYPHIMURIUM, Strain/Indicator: TA1535, Metabolic Activation: RAT, LIVER, S-9, AROCLOR 1254, Method: STANDARD PLATE) was “inactive; negative”, the mutagenic call (Test System: AMES SALMONELLA TYPHIMURIUM, Strain/Indicator: TA1537, Metabolic Activation: HAMSTER, LIVER, S-9, AROCLOR 1254, Method: STANDARD PLATE) was “inactive; negative” and the mutagenic call (Test System: AMES SALMONELLA TYPHIMURIUM, Strain/Indicator: TA1537, Metabolic Activation: NONE, Method: STANDARD PLATE) was “inactive; negative”. For the same compound, the mutagenic call (Test System: AMES SALMONELLA TYPHIMURIUM, Strain/Indicator: TA1537, Metabolic Activation: RAT, LIVER, S-9, AROCLOR 1254, Method: STANDARD PLATE) was “inactive; negative”, the mutagenic call (Test System: AMES SALMONELLA TYPHIMURIUM, Strain/Indicator: TA1538, Metabolic Activation: HAMSTER, LIVER, S-9, AROCLOR 1254, Method: STANDARD PLATE) was “inactive; negative” and the mutagenic call (Test System: AMES SALMONELLA TYPHIMURIUM, Strain/Indicator: TA1538, Metabolic Activation: NONE, Method: STANDARD PLATE) was “inactive; negative”. The mutagenic call (Test System: AMES SALMONELLA TYPHIMURIUM, Strain/Indicator: TA1538, Metabolic Activation: RAT, LIVER, S-9, AROCLOR 1254, Method: STANDARD PLATE) was “inactive; negative”, the mutagenic call (Test System: MOUSE LYMPHOMA, Strain/Indicator: L5178Y (TK+/TK-), Metabolic Activation: NONE, Method: SUSPENSION/PLATE) was “inactive; negative. reevaluation of results: negative” and the mutagenic call (Test System: MOUSE LYMPHOMA, Strain/Indicator: L5178Y (TK+/TK-), Metabolic Activation: RAT, LIVER, S-9, AROCLOR 1254, Method: SUSPENSION/PLATE) was “inactive; negative. reevaluation of results: negative”.
